Results published in patent publication US10004718B2, “Erythropoietin expression promoter” (TOHOKU UNIVERSITY, priority 2012, dated 2018).

Legend:
erythropoietin = test: Erythropoietin production in vivo in mice, oral administration for 7 days; set-up: species or system mouse; conditions: 7 consecutive days, plasma 24 hours after final administration, vs corn oil, DMSO+corn oil or no administration
Protocol: A mixed solution (200 μl) of each of 4 types of compounds (compounds #4, 5, 21, and 35) (10 mg/100 μl of DMSO) (10 μl) and corn oil (190 μl) was prepared. This mixed solution (200 μl) was orally administered to each mouse (C57BL/6N 8 W, male, 21-25 g) between 15:00 to 18:00 every day using a sonde. This administration was carried out for 7 consecutive days. Mice orally given corn oil or DMSO and corn oil as well as non-administered mice were used as controls.
24 hours after the final administration, each mouse was cervically dislocated, and 500 μl of blood was collected from the heart. Then, an anticoagulant (10 μl of heparin) was added thereto, and the resulting blood was centrifuged (12000 rpm×20 min, 4° C.) to isolate plasma. The plasma concentration […] of erythropoietin was measured using a kit (Quantikine Mouse/Rat Epo Immunoassay, manufactured by R&D Systems, Inc.).

Leigh cells = test: Cell death caused by oxidative stress (BSO) in Leigh syndrome patient fibroblasts; format: cell-based, human; conditions: compound 10 μM, 4 days after BSO treatment
Protocol: In Examples 2 to 7 and Reference Example 1 below, an erythropoietin-producing human hepatocellular carcinoma cell Hep3B (obtained from ATCC [American Type Culture Collection]) was cultured and maintained under conditions of 5% CO2/20% O2 and 37° C. in an RPMI1640 (manufactured by Life Technologies, Inc./GIBCO) medium containing 100 U/mL penicillin (manufactured by Life Technologies, Inc./GIBCO), 100 μg/mL streptomycin (manufactured by Life Technologies, Inc./GIBCO), and 10% fetal bovine serum (FBS) (manufactured by Life Technologies, Inc./GIBCO) (hereinafter, referred to as “RPMI1640 common medium 1”). In Example 15 below, Leigh syndrome patients were subjected to skin biopsy to obtain skin fibroblast cells, which were then primarily cultured under conditions of 5% CO2/20% O2 and 37° C. in a DMEM low glucose (manufactured by Life Technologies, Inc./GIBCO) medium containing 100 U/mL penicillin (manufactured by Life Technologies, Inc./GIBCO), 100 μg/mL streptomycin (manufactured by Life Technologies, Inc./GIBCO), and 1% FBS (manufactured by Life Technologies, Inc./GIBCO) (hereinafter, referred to as “DMEM low glucose common medium”) to isolate cells (Leigh cells). In Example 13 below, a human kidney-derived cell line HK-2 (obtained from ATCC) was cultured and maintained under conditions of 5% CO2/20% O2 and 37° C. in a DMEM/F12 (manufactured by Life Technologies, Inc./GIBCO) medium containing 100 U/mL penicillin (manufactured by Life Technologies, Inc./GIBCO), 100 μg/mL streptomycin (manufactured by Life Technologies, Inc./GIBCO), and 10% fetal bovine serum (manufactured by Life Technologies, Inc./GIBCO) (hereinafter, referred to as “DMEM/F12 common medium”). In Example 14 below, a rat islet of Langerhans-derived cell line ISN-1e (kindly provided by Hisamitsu Ishihara, Nihon University School of Medicine) was cultured and maintained under conditions of 5% CO2/20% O2 and 37° C. in an RPMI1640 (manufactured by Life Technologies, Inc./GIBCO) medium containing 10 mM HEPES (manufactured by Sigma-Aldrich Corp.), 2 mM glutamine (manufactured by Sigma-Aldrich Corp.), 50 μM β-mercaptoethanol (manufactured by Sigma-Aldrich Corp.), 100 U/mL penicillin (manufactured by Life Technologies, Inc./GIBCO), 100 μg/mL streptomycin (manufactured by Life Technologies, Inc./GIBCO), and 10% FBS (manufactured by Life Technologies, Inc./GIBCO) (hereinafter, referred to as “RPMI1640 common medium 2”).
The Leigh cells were seeded at 4×10^4 cells/well to a 24-well cell culture plate and then cultured for 24 hours. The glutathione synthesis inhibitor BSO (L-buthionine sulphoximine) (manufactured by Sigma-Aldrich Corp.) was mixed at […] into a medium. After culture for 24 hours in the presence of BSO, each of 5 types of compounds (compounds #2, 4, 5, 21, and 35) was mixed at 10 μM into the medium. After culture for 4 days in the presence of these 5 types of compounds, the number of live cells was measured using Cell Counting Kit-8 (manufactured by Dojindo Laboratories) to calculate the survival rate of the cells (“BSO+#2”, “BSO+#4”, “BSO+#5”, “BSO+#21”, and “BSO+#35” of FIG. 17). […]

HIF-α = HIF-α concentration in Hep3B cells (Total HIF-1α Cell-Based ELISA); set-up: species or system human; conditions: compound 10 μM, 20% O2, 24 hours
Protocol: The Hep3B cells were seeded at 1×10^4 cells/well to a 24-well cell culture plate and then cultured under normal oxygen (20% O2) for 24 hours. Each of 3 types of compounds (compounds #4, 21, and 35) was mixed at a concentration of 10 μM into RPMI1640 common medium 1. After further culture under normal oxygen (20% O2) for 24 hours, the concentration of HIF-α produced in the medium was measured using Total HIF-1 α Cell-Based ELISA Kit (manufactured by R&D Systems, Inc.). Hep3B cells cultured in the absence of the compound (DMSO added [1%]) (“Control” of FIG. 5) were used as a negative control. Hep3B cells cultured in the presence of HIF activators (FG-4592 [10 μM], DMOG [10 μM], and ciclopirox[10 μM]) (“FG”, “DMOG”, and “Ciclo”, respectively, of FIG. 5) were used as positive controls.

O=C(O)C(CCCC(F)(F)C(F)(F)F)c1c[nH]c2ccccc12 (stereo not drawn) [compound #21, α-(4,4,5,5,5-Pentafluoro-1-pentyl)-3-indoleacetic acid]
amount of erythropoietin in the mouse blood (erythropoietin): increased | cell death of the Leigh cells by BSO (Leigh cells): efficiently suppress the cell death | HIF-α concentration in the Hep3B cells (HIF-α): increase the HIF-α concentration

O=C(CC(C(=O)O)c1c[nH]c2ccccc12)c1ccc(F)cc1F (centres unmarked) [compound #5, 4-(2,4-Difluorophenyl)-2-(1H-indol-3-yl)-4-oxo-butanoic acid]
amount of erythropoietin in the mouse blood (erythropoietin): increased | cell death of the Leigh cells by BSO (Leigh cells): efficiently suppress the cell death

O=C(CC(C(=O)O)c1c[nH]c2ccccc12)c1ccc(F)cc1 (centres unmarked) [compound #4, 4-(4-Fluorophenyl)-2-(1H-indol-3-yl)-4-oxo-butanoic acid]
amount of erythropoietin in the mouse blood (erythropoietin): increased | cell death of the Leigh cells by BSO (Leigh cells): efficiently suppress the cell death | HIF-α concentration in the Hep3B cells (HIF-α): increase the HIF-α concentration
